≈ marks a conversion by molar mass, not a printed value.
Assays:
[1] = tested on: Mycobacterium tuberculosis; assay: Antimycobacterial activity against Mycobacterium bovis BCG after 2 weeks; format: functional; conditions: variant bovis BCG, 336 h
[2] = tested on: Mycobacterium tuberculosis; assay: Antimycobacterial activity against Mycobacterium bovis BCG overexpressing InhA after 2 weeks; format: functional; conditions: variant bovis BCG, 336 h
[3] = tested on: Mycobacterium tuberculosis; assay: Ratio of MIC for Mycobacterium bovis BCG overexpressing InhA to MIC for Mycobacterium bovis BCG; format: functional, variant bovis BCG

| SMILES | MIC [1] [µg/mL] | MIC [2] [µg/mL] | Ratio [3] |
| --- | --- | --- | --- |
| Cc1cc(C)n(Cc2ccc(C(=O)NCC3(c4nc(-c5ccccc5)cs4)CCOCC3)cc2)n1 | 7.8 (≈ 16 µM) | 31.3 (≈ 64.3 µM) | 4 |
| NNC(=O)c1ccncc1 [ISONIAZID] | 0.75 (≈ 5.47 µM) | > 16 | >21 |
| NC[C@H]1O[C@H](O[C@H]2[C@H](O)[C@@H](O[C@H]3O[C@H](CO)[C@@H](O)[C@H](N)[C@H]3O)[C@H](N)C[C@@H]2N)[C@H](O)[C@@H](O)[C@@H]1O [KANAMYCIN] | 0.6 (≈ 1.24 µM) | 0.6 (≈ 1.24 µM) | 1 |

Source: ChEMBL document CHEMBL3779781, “New direct inhibitors of InhA with antimycobacterial activity based on a tetrahydropyran scaffold” (Eur J Med Chem, 2016)
